Earlier results as cited in US5925665A, “Imidazoline compounds” (Adir Et Compagnie, priority 1996, dated 1999).

System: mice
Settings: general statement on reference products

CNCCCN1c2ccccc2CCc2ccccc21 [desipramine]
duration of immobility, known antidepressants: decrease this duration of immobility

CN(C)CCCN1c2ccccc2CCc2ccccc21 [imipramine]
duration of immobility, known antidepressants: decrease this duration of immobility
